Experimental data published in US6589504B1, “Compounds and methods for diagnosing and treating amyloid-related conditions” (Pharmacia & Upjohn Company, priority 2000, dated 2003).
Like-named read-outs stand apart in the source and are kept apart here.

What was measured:
[1] = biological target: T1, human β-amyloid containing plaques (Homo sapiens, UniProt P05067); assay: Determination of in vivo brain distribution (fluorescence of brain sections)
T1 construct: from tissue; host or cells: brain of transgenic (Tg) mice carrying the human β-APP gene
Description: Transgenic mice, designated “Tg”, were obtained. The transgenic mice carry the human gene for β-APP, a gene associated with β-amyloid deposition in the brain. The mice were treated with.the quinolinehydrazone compound, 4-methyl-7-methoxy-2-(4-quinolylmethylhydrazino)quinoline. Dosing was administered either intravenously or orally. The intravenous dose was administered as a single injection (50 μmol/kg). Orally-treated animals received a single dose (400 μmol/kg) via oral gavage, or were dosed twice-a-day for 10 days (400 μmol/kg/dose/day).
Age-matched normal mice served as a negative control, i.e. no plaque formation in the animals was indicated. The control mice were treated in the same manner as the transgenic mice, but with placebo.
In addition, a group of age-matched Tg mice were treated with the carrier vehicle only.
All animals were sacrificed beginning 1, 3 and 10 h after the final dose. Fresh brains of the animals were removed, bisected, and positioned in […] (OCT). The brains were immersed into 2-methylbutane, pre-cooled to […] with liquid nitrogen. The brains were cut into 20 μm thick sections at a temperature of −20° C. Brain sections were collected onto poly-L-lysine-coated glass microscopic slide and treated with (1 drop) of 75%, by volume (v/v), glycerin in […](PBS). […]
The section adjacent to each compound-treated section of the brain was stained with thioflavin S (Sigma Chemicals, Milwaukee, Wis., U.S.A.). Sections stained with thioflavin S served as a positive control for identifying plaque. The distribution of compound-associated fluorescence was compared with the distribution of thioflavin S-stained section in order to confirm whether the compound bound plaque.
All sections were examined 1 h later to assess artifactual drug diffusion within thawed sections over time.

[2] = Dose-dependent pharmacokinetics: plasma and brain Cmax after oral dosing; assay type: in vivo; conditions: normal mice, 400 to 3,200 μmol/kg
Description: Dose-proportionality characteristics were assessed by measuring the maximum concentration (Cmax) for plasma and brain concentrations after oral dosing of normal mice. […] Plasma and brain concentrations were measured by HPLC at 0.5 to 24 hours.

[3] = In vivo determination of plasma and brain exposure (AUC) after oral dosing; conditions: normal mice; for Kp: brain/plasma
Description: Plasma and brain exposure were assessed by measuring area under the curve (AUC) after oral dosing of normal mice.
The brain to plasma ratios were calculated and reported below.
The terminal half-life of compound in the brain was measured to determine the dosing frequency for 10-day tolerance studies. For the three highest doses, brain terminal half-life ranged from 5-7 h.

[4] = biological target: T2, amyloid plaque in brains of Tg mice (Homo sapiens, UniProt P05067); assay: Postmortem staining of amyloid plaque in brain sections
T2 construct: from tissue; host or cells: frozen, methanol-fixed brain sections of 12-14 month-old Tg mice
Description: Brains from 12-14 month-old Tg mice were frozen and sectioned at −20° C. Each section was fixed in ice cold methanol (Aldrich Chemical Co., Milwaukee, Wis.) for 10 minutes, rinsed in buffer and incubated in 4-methyl-7-methoxy-2-(4-quinolylmethylenehydrazino)quinoline for 90 minutes at room temperature. […] Fluorescence intensity in Tg mouse amyloid decreased with drug concentration. […] The […] mouse brains were confirmed to be plaque-free.

Neuronal cells = assay: In vitro antioxidant effect, neuronal cytoprotection model; assay type: cell-based; conditions: 1, 3, 10, 30 and 100 μM, with and without ferrous ammonium sulfate, 3 hours, LC/MS
Description: The 4-methyl-7-methoxy-2-(4-quinolylmethylene-hydrazino)quinoline was dissolved in 100×stock of aqueous Locke's buffer to obtain concentrations of 1, 3, 10, 30, and 100 μM solution. Neuronal cells were incubated in each compound solution with and without ferrous ammonium sulfate (200 μm) for 3 hours. High concentration supernatant was obtained from each sample. The samples were analyzed under liquid chromatography/mass spectrometry (LC/MS).

[5] = system: primary neuronal model of FAS-induced lipid peroxidation toxicity; assay: In vitro antioxidant effect, ferrous ammonium sulfate (FAS)-induced oxidative toxicity model; assay type: cell-based
Description: The 4-methyl-7-methoxy-2-(4-quinolylmethylene-hydrazino)quinoline was tested in a primary neuronal model of FAS-induced lipid peroxidation toxicity. The compound was treated in two manners. In one manner, the compound was solubilized as 100×stock in 100% dimethyl sulfoxide (DMSO) to afford panel A. In another manner, the compound was solubilized in aqueous Locke's buffer to give panel B.

[6] = system: amyloid-like proteins with a beta-pleated sheet conformation; conditions: in vitro; cited from earlier work
[7] = 30 and 100 μM, 1% DMSO experiments (panel A)

T1 sequence (P05067 672-713 limits assumed): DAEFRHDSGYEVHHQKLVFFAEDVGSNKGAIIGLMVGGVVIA
T2 sequence (P05067 672-713 limits assumed): as above

COc1ccc2c(C)cc(NN=Cc3ccnc4ccccc34)nc2c1 [4-methyl-7-methoxy-2-(4-quinolylmethylenehydrazino)quinoline]
plaque burden shown in brain sections compared with thioflavin S stained sections ([1]; Tg mice receiving the compound): marked plaque burden
drug-related fluorescence in brain sections in areas of plaque formation ([1]; Tg mice, i.v. 50 μmol/kg or oral 400 μmol/kg, λex 365 nm, λem 400 nm): intense drug-related fluorescence
binding to plaques in vivo ([1]; Tg mice, i.v. or oral dosing): preferentially binds to human β-amyloid containing plaques
brain penetration ([1]; Tg mice, i.v. or oral dosing): brain penetrable
Cmax for brain, dose proportionality [2]: increases proportionally
Cmax for plasma, dose proportionality [2]: increases proportionally
Kp ([3]; mouse, oral, dose 51 μmole/kg, read-out: B/P Ratio AUC): 5.3
Kp ([3]; mouse, oral, dose 208 μmole/kg, read-out: B/P Ratio AUC): 3.2
Kp ([3]; mouse, oral, dose 421 μmole/kg, read-out: B/P Ratio AUC): 2.5
Kp ([3]; mouse, oral, dose 831 μmole/kg, read-out: B/P Ratio AUC): 5.7
Kp ([3]; mouse, oral, dose 1472 μmole/kg, read-out: B/P Ratio AUC): 5.7
Kp ([3]; mouse, oral, dose 3024 μmole/kg, read-out: B/P Ratio AUC): 7.3
Kp ([3]; mouse, oral, over the dose range tested, read-out: brain levels relative to plasma levels, average): 5
half-life ([3]; mouse, brain, oral, three highest doses, read-out: brain terminal half-life): 5 to 7 h
penetration to the brain tissue ([3]; oral): good penetration of the compound to the brain tissue
plasma exposure, saturation ([3]; oral, 3,024 μmol/kg): evidence of saturation
brain exposure, dose dependence ([3]; oral, 421 to 1,472 μmol/kg): increased more rapidly
plasma exposure, dose proportionality ([3]; oral, 421 to 1,472 μmol/kg): increased proportionally
localization of compound fluorescence, confirmed by thioflavin S staining of adjacent sections ([4]; Tg mouse brain sections): does localize in amyloid plaques
staining in brains of transgene-free mice ([4]; brain sections of transgene-free mice): not in brains of transgene-free mice
antioxidant effect (Neuronal cells): demonstrated antioxidant properties
cell morphology, brightfield photographs ([5]; 10 μM + FAS cells versus control cells): no different than cells treated with no drug and no FAS
neuronal protection against FAS ([5]; 10 μM compound, 200 μM FAS, 3 hours, 14C-AIB uptake or LDH release): close to or complete neuronal protection
drug toxicity to neuronal cells ([5]; 30 μM, aqueous preparation (panel B)): much less drug toxicity
concentration range of concentration-dependent inhibition of FAS toxicity ([5]; 200 μM FAS, 3 hours, 14C-AIB uptake or LDH release): 0.3 to 10 µM
drug toxicity to neuronal cells [5, 7]: inherent drug toxicity
neuronal protection against FAS [5, 7]: no neuronal protection
neuronal protection against FAS ([5]; 30 and 100 μM, aqueous preparation (panel B)): considerable neuronal protection

Nc1c(N=Nc2ccc(-c3ccc(N=Nc4cc(S(=O)(=O)[O-])c5ccccc5c4N)cc3)cc2)cc(S(=O)(=O)[O-])c2ccccc12.[Na+].[Na+] [Congo red, 3,3′-[[1,1′-biphenyl]-4,4′-diylbis(azo)]bis[4-amino-1-naphthalenesulfonic acid] disodium salt]
binding to amyloid-like proteins [6]: demonstrated binding
